# According to patent publication US20240299535A1, “TARGETED GLYCOSAMINOGLYCAN-PARTICLES AND METHODS OF USE” (priority 2021, published 2024):
# Key:
# [1] = test system: cell uptake of HEP-AuNPs; test: CS A competition as a function of time and concentration (ICP-MS); type: cell-based
# Excerpt: We further assessed the competition effect of CS A as a function of time and concentration at non-cytotoxic levels. […] These competition experiments with GAG structural analog polymers imply that CS A can substitute to some degree as a ligand for HEP for the internalization receptor(s).
# [2] = test system: DC 2.4 dendritic cells; test: CS A competition of HEP-AuNP uptake (ICP-MS); type: cell-based, murine; details: 1 hour pre-incubation, nanoparticles 2.5 hour; non-cytotoxic doses
# Excerpt: Next, we expanded the structural analog competition study to DC 2.4 dendritic cells. […] We quantified the competition efficiency by ICP-MS and corroborated the results with light microscopy.
# [3] = test system: RAW 264.7 macrophages; test: HEP structural analog competition of HEP-AuNP uptake (ICP-MS); type: cell-based, murine; details: pre-incubation with competitor
# Excerpt: To quantify the nanoparticles' cellular interactions, we performed quantitative ICP-MS and corroborated the results qualitatively with light microscopy. […] No significant competition with the remaining structural analogs was observed.
# [4] = test system: RAW 264.7 macrophages
# Excerpt: We next investigated whether the CS A inhibitory effect of HEP-AuNP uptake was due to a potential toxicity effect of the CS A preparation, which was extracted from a mammalian source.
# [5] = test system: RAW264.7 macrophages; test: Cell viability assays with endocytosis inhibitors; details: 0-31.4 μM chlorpromazine, 0-3.9 μM cytochalasin D
# Protocol: (§1) We performed systematic dose escalation studies to assess the dose-response of the inhibitory effect and the cell toxicity of these two agents. Based on the previous dose screening experiments and published cell viability data the dose ranges were 0-31.4 μM and 0-3.9 μM for chlorpromazine and cytochalasin D, respectively.
# [6] = test system: DC 2.4 dendritic cells; test: Endocytosis inhibition study of HEP-AuNP uptake (ICP-MS); type: cell-based, murine
# [7] = test system: RAW 264.7 macrophages; test: as above; type: cell-based, murine; details: for inhibitory effects for nanoparticle uptake: dose escalation, 0-31.4 μM chlorpromazine, 0-3.9 μM cytochalasin D; for nanoparticle cellular uptake inhibition efficiencies / effect on nanoparticle cellular uptake: inhibitor screen, 1 h pre-incubation, nanoparticles 1.5 hours
# Protocol: Panel (A) is a schematic representation of the uptake pathway study: (i) non-specific endocytosis inhibition to determine whether nanoparticle cellular uptake is energy-dependent. (ii-iv) Specific endocytosis inhibitors for studying (ii) caveolae-mediated endocytosis, (iii) clathrin-mediated endocytosis, and (iv) macropinocytosis. Panels (B) to (D) are ICP-MS quantification of the nanoparticle cellular uptake in RAW 264.7 macrophages at 4° C.—Panel (B), in the presence of ATPase inhibitor sodium azide—Panel (C), or chemical endocytosis inhibitors of caveolae-mediated endocytosis, clathrin-mediated endocytosis, and […]—Panel (D). AuNPs modified with 13-kDa HEP (at 0.2 nM) were used as control without inhibitors at 37° C. Bars indicate mean±SD (n=3-4); statistical tests used one-way ANOVA (p<0.0001 (****); p<0.0021 (**); p<0.0332 (*).
# We hypothesized that these nanoparticles might enter cells via endocytosis by one or more energy-dependent uptake pathways. Thus, we carried out a systematic endocytosis inhibition study to discern which uptake pathways were involved.
# First, we pre-incubated the innate immune cells for 1 h with the endocytosis inhibitors. Then we added the nanoparticles and incubated them with the cells for 1.5 hours. We imaged the cells with a light microscope and quantified the nanoparticle uptake by ICP-MS (FIG. 2, Panel (D)).
# as §1
molecule,measurement,setting,value
Chondroitin Sulfate A [CS A],IC50 (inhibitor dose-response of HEP-AuNP uptake),[1],500 µg/mL
same,inhibitory effect over time,[1]; 1 mg/mL,persisted throughout time
same,suppression of cellular uptake of HEP-AuNPs,[1]; 2 mg/mL,up to 9 fold
same,nanoparticle uptake vs no-competitor group,[2],lower nanoparticle uptake
same,reduction of cellular uptake of HEP-AuNPs vs no-competitor group,[3],~43%
same,effect on cell viability,[4],did not affect cell viability
CN(C)CCCN1c2ccccc2Sc2ccc(Cl)cc21 [chlorpromazine],cytotoxicity of inhibitor doses,[5],not cytotoxic
same,reduction of HEP-AuNP uptake,[6],approximately 77%
same,inhibitory effects for nanoparticle uptake,[7],approximately 70%
same,nanoparticle cellular uptake inhibition efficiencies,[7],approximately 73%
CCN1C(=O)C=CC1=O [N-ethylmaleimide],effect on nanoparticle cellular uptake,[7],did not reduce the nanoparticle cellular uptake
Chondroitin Sulfate C [CS C],reduction of cellular uptake of HEP-AuNPs vs no-competitor group,[3],approximately 15%
CN(C)CCCN1c2ccccc2CCc2ccccc21 [imipramine],nanoparticle cellular uptake inhibition efficiencies,[7],~8%
CCCCC[C@@H](O)[C@H]1C(=O)O[C@H](C)[C@@H](O)/C=C/C=C/C=C/C=C/C=C(\C)[C@@H](O)C[C@H](O)C[C@H](O)C[C@H](O)C[C@H](O)C[C@H](O)C[C@@H]1O [Filipin],effect on nanoparticle cellular uptake,[7],did not reduce the nanoparticle cellular uptake
CCN(CC)CCCC(C)Nc1ccnc2cc(Cl)ccc12 (centres unmarked) [chloroquine],nanoparticle cellular uptake inhibition efficiencies,[7],~12%
"CCN(c1nc(N)c(C(=O)N=C(N)N)nc1Cl)C(C)C [EIPA, 5-(N-ethyl-N-isopropyl) amiloride]",effect on nanoparticle cellular uptake,[7],did not reduce the nanoparticle cellular uptake
C=C1[C@@H](C)[C@H]2[C@H](Cc3ccccc3)NC(=O)[C@]23[C@H](OC(C)=O)/C=C/[C@@](C)(O)C(=O)[C@@H](C)C/C=C/[C@H]3[C@@H]1O [cytochalasin D],cytotoxicity of inhibitor doses,[5],not cytotoxic
same,reduction of HEP-AuNP uptake,[6],approximately 77%
same,inhibitory effects for nanoparticle uptake,[7],approximately 51%
same,nanoparticle cellular uptake inhibition efficiencies,[7],~24%
heparin,reduction of cellular uptake of HEP-AuNPs vs no-competitor group,[3],approximately 18%
[N-]=[N+]=[N-] [sodium azide],reduction of cellular uptake of HEP-AuNPs,[7]; 0.1% w/v sodium azide,approximately 22%
O=C(N/N=C/c1ccc(O)c(O)c1)c1cc2ccccc2cc1O [Dynasore],effect on nanoparticle cellular uptake,[7],did not reduce the nanoparticle cellular uptake
